Results: article PMC9959048, “Lipidation of Naturally Occurring α-Helical Antimicrobial Peptides as a Promising Strategy for Drug Design” (International Journal of Molecular Sciences, 2023)
Values after ≈ are worked out from the molar mass of the structure shown. Read-outs that look alike come from different tables or passages of the source. Residues, ends and D or L forms follow the SMILES beside them. *: point of attachment. Palmitoyl = CCCCCCCCCCCCCCCC(=O)*; Myristoyl = CCCCCCCCCCCCCC(=O)*; Lauroyl = CCCCCCCCCCCC(=O)*; Decanoyl = CCCCCCCCCC(=O)*

Assays:
[1] = system: E. coli PCM2057; type: cell-based, Escherichia coli
Protocol: (§1) The evaluation of the antimicrobial activity of the synthesized lipopeptides was performed against the following reference bacterial and fungal strains: Staphylococcus aureus PCM 1650, Staphylococcus aureus PCM 2054, Staphylococcus epidermidis PCM 521, Staphylococcus epidermidis PCM 2118, Escherichia coli PCM 2057, Candida albicans PCM 2566, Candida glabrata CCM 8270, Candida krusei CCM 8271, Candida parapsilosis CCM 8260.
(§2) For the initial cultivation of the bacteria and fungi, Luria-Bertani broth (LB, Biomaxima, Lublin, Poland) and Sabouraud Dextrose broth (SB, Biomaxima, Lublin, Poland) were used, respectively. Antimicrobial properties of the compounds were analyzed through the determination of MIC (minimal inhibitory concentrations) by my means of the serial micro-dilution technique according to the guidelines of Clinical & Laboratory Standard Institute (CLSI) established for aerobic bacteria and yeasts.
(§3) According to the procedures, Mueller–Hinton broth (MHB) was used as the working medium for the analysis of the bacterial susceptibility, while RPMI-1640 (with L-glutamine, without sodium bicarbonate) growth medium buffered with MOPS (morpholinepropanesulfonic acid) and supplemented with 2% glucose was used for the experiments with the fungi.
(§4) The experiments were carried out for 24 h at 37 and 35 °C for the bacteria and fungi, respectively. Then, the absorbance was measured at 600 nm for each well of the 96-well plate using a microplate reader (Sunrise TM, Tecan Trading AG, Männedorf, Switzerland). Based on the obtained results, the degree of inhibition of the growth of microorganisms (expressed in %) in the presence of the tested compounds range was determined with respect to the control probes. Inoculated wells without peptide were treated as a positive control (100% growth), and the wells containing working medium only were defined as a negative control (0% growth). All measurements were repeated in triplicate.

[2] = system: C. krusei CCM8271; type: cell-based, Candida krusei
Protocol: as §1, §2, §3, §4

[3] = system: S. epidermidis PCM521; type: cell-based, Staphylococcus epidermidis
Protocol: as §1, §2, §3, §4

[4] = system: S. epidermidis PCM2118; type: cell-based, Staphylococcus epidermidis
Protocol: as §1, §2, §3, §4

[5] = system: C. albicans PCM2566; type: cell-based, Candida albicans
Protocol: as §1, §2, §3, §4

[6] = system: C. glabrata CCM8270; type: cell-based, Candida glabrata
Protocol: as §1, §2, §3, §4

[7] = system: C. parapsilosis CCM 8260; type: cell-based, Candida parapsilosis
Protocol: as §1, §2, §3, §4

[8] = system: S. aureus PCM2054; type: cell-based, Staphylococcus aureus
Protocol: as §1, §2, §3, §4

[9] = Mueller–Hinton broth, inoculum 5 × 10^5 CFU/mL, 24 h, 37 °C, absorbance 600 nm, triplicate
[10] = RPMI-1640 with MOPS and 2% glucose, inoculum 5 × 10^3 CFU/mL, 24 h, 35 °C, absorbance 600 nm, triplicate

Compound	MIC, E. coli PCM2057 ([1]; PCM2057, 24 h)	MIC, C. krusei CCM8271 ([2]; CCM8271, 24 h)	MIC, S. epidermidis PCM521 ([3]; PCM521, 24 h)	MIC, S. epidermidis PCM2118 ([4]; PCM2118, 24 h)	MIC, C. albicans PCM2566 ([5]; PCM2566, 24 h)	MIC, C. glabrata CCM8270 ([6]; CCM8270, 24 h)	MIC, C. parapsilosis CCM 8260 ([7]; CCM 8260, 24 h)	MIC, S. aureus PCM2054 ([8]; PCM2054, 24 h)	MIC, E. coli PCM2057 [1, 9]	MIC, C. krusei CCM8271 [2, 10]	MIC, S. epidermidis PCM521 [3, 9]	MIC, S. epidermidis PCM2118 [4, 9]	MIC, C. albicans PCM2566 [5, 10]	MIC, C. glabrata CCM8270 [6, 10]	MIC, C. parapsilosis CCM 8260 [7, 10]	MIC, S. aureus PCM2054 [8, 9]
CCCCCCCCCC(=O)N[C@H](C(=O)N[C@@H](CCCCN)C(=O)N[C@@H](CCCCN)C(=O)N[C@H](C(=O)N[C@@H](CC(C)C)C(=O)N[C@@H](CO)C(=O)N[C@@H](CCCCN)C(=O)N[C@H](C(=O)N[C@@H](CCCCN)C(=O)N[C@@H](CCCCN)C(=O)N[C@@H](CC(C)C)C(=O)N[C@@H](CC(C)C)C(=O)N[C@@H](CCCCN)C(N)=O)[C@@H](C)CC)[C@@H](C)CC)[C@@H](C)CC [C10-LK6] (Decanoyl-IKKILSKIKKLLK-NH2)	>50 µg/mL	6.25 µg/mL (≈ 3.66 µM)	6.25 µg/mL (≈ 3.66 µM)	6.25 µg/mL (≈ 3.66 µM)	6.25 µg/mL (≈ 3.66 µM)	6.25 µg/mL (≈ 3.66 µM)	6.25 µg/mL (≈ 3.66 µM)	50 µg/mL (≈ 29.3 µM)								
CCCCCCCCCCCC(=O)N[C@@H](CCCCN)C(=O)N[C@@H](CCCNC(=N)N)C(=O)N[C@@H](Cc1ccccc1)C(=O)N[C@@H](CCCCN)C(=O)N[C@@H](CCCCN)C(=O)N[C@@H](Cc1ccccc1)C(=O)N[C@@H](Cc1ccccc1)C(=O)N[C@@H](CCCCN)C(=O)N[C@@H](CCCCN)C(=O)N[C@@H](CC(C)C)C(=O)N[C@@H](CCCCN)C(N)=O [C12-ATRA-1] (Lauroyl-KRFKKFFKKLK-NH2)									31.25 µg/mL (≈ 18.6 µM)	2.5 µg/mL (≈ 1.49 µM)	3.13 µg/mL (≈ 1.86 µM)	3.13 µg/mL (≈ 1.86 µM)	2.5 µg/mL (≈ 1.49 µM)	6.25 µg/mL (≈ 3.72 µM)	12.5 µg/mL (≈ 7.44 µM)	3.9 µg/mL (≈ 2.32 µM)
CCCCCCCCCCCCCC(=O)N[C@H](C(=O)N[C@@H](CCCCN)C(=O)N[C@@H](CCCCN)C(=O)N[C@H](C(=O)N[C@@H](CC(C)C)C(=O)N[C@@H](CO)C(=O)N[C@@H](CCCCN)C(=O)N[C@H](C(=O)N[C@@H](CCCCN)C(=O)N[C@@H](CCCCN)C(=O)N[C@@H](CC(C)C)C(=O)N[C@@H](CC(C)C)C(=O)N[C@@H](CCCCN)C(N)=O)[C@@H](C)CC)[C@@H](C)CC)[C@@H](C)CC [C14-LK6] (Myristoyl-IKKILSKIKKLLK-NH2)	>50 µg/mL	6.25 µg/mL (≈ 3.55 µM)	25 µg/mL (≈ 14.2 µM)	25 µg/mL (≈ 14.2 µM)	6.25 µg/mL (≈ 3.55 µM)	12.5 µg/mL (≈ 7.09 µM)	6.25 µg/mL (≈ 3.55 µM)	50 µg/mL (≈ 28.4 µM)								
CCCCCCCCCCCCCC(=O)N[C@H](C(=O)N[C@@H](CC(N)=O)C(=O)N[C@@H](Cc1c[nH]c2ccccc12)C(=O)N[C@@H](CCCCN)C(=O)N[C@@H](CCCCN)C(=O)N[C@H](C(=O)N[C@@H](CC(C)C)C(=O)NCC(=O)N[C@@H](CCCCN)C(=O)N[C@H](C(=O)N[C@H](C(=O)N[C@@H](CCCCN)C(=O)N[C@H](C(=O)N[C@@H](C)C(=O)N[C@@H](CCCCN)C(N)=O)C(C)C)[C@@H](C)CC)[C@@H](C)CC)C(C)C)C(C)C [C14-LL-I] (Myristoyl-VNWKKVLGKIIKVAK-NH2)									>50 µg/mL	12.5 µg/mL (≈ 6.46 µM)	12.5 µg/mL (≈ 6.46 µM)	12.5 µg/mL (≈ 6.46 µM)	>50 µg/mL	12.5 µg/mL (≈ 6.46 µM)	3.13 µg/mL (≈ 1.62 µM)	>50 µg/mL
CCCCCCCCCCCCCCCC(=O)N[C@H](C(=O)N[C@@H](CCCCN)C(=O)N[C@@H](CCCCN)C(=O)N[C@H](C(=O)N[C@@H](CC(C)C)C(=O)N[C@@H](CO)C(=O)N[C@@H](CCCCN)C(=O)N[C@H](C(=O)N[C@@H](CCCCN)C(=O)N[C@@H](CCCCN)C(=O)N[C@@H](CC(C)C)C(=O)N[C@@H](CC(C)C)C(=O)N[C@@H](CCCCN)C(N)=O)[C@@H](C)CC)[C@@H](C)CC)[C@@H](C)CC [C16-LK6] (Palmitoyl-IKKILSKIKKLLK-NH2)	>50 µg/mL	25 µg/mL (≈ 14 µM)	50 µg/mL (≈ 27.9 µM)	50 µg/mL (≈ 27.9 µM)	6.25 µg/mL (≈ 3.49 µM)	>50 µg/mL	50 µg/mL (≈ 27.9 µM)	>50 µg/mL								
CCCCCCCCCCCCCCCC(=O)N[C@H](C(=O)N[C@@H](CC(N)=O)C(=O)N[C@@H](Cc1c[nH]c2ccccc12)C(=O)N[C@@H](CCCCN)C(=O)N[C@@H](CCCCN)C(=O)N[C@H](C(=O)N[C@@H](CC(C)C)C(=O)NCC(=O)N[C@@H](CCCCN)C(=O)N[C@H](C(=O)N[C@H](C(=O)N[C@@H](CCCCN)C(=O)N[C@H](C(=O)N[C@@H](C)C(=O)N[C@@H](CCCCN)C(N)=O)C(C)C)[C@@H](C)CC)[C@@H](C)CC)C(C)C)C(C)C [C16-LL-I] (Palmitoyl-VNWKKVLGKIIKVAK-NH2)									>50 µg/mL	>50 µg/mL	25 µg/mL (≈ 12.7 µM)	25 µg/mL (≈ 12.7 µM)	>50 µg/mL	>50 µg/mL	12.5 µg/mL (≈ 6.37 µM)	>50 µg/mL
CC[C@H](C)[C@H](N)C(=O)N[C@@H](CCCCN)C(=O)N[C@@H](CCCCN)C(=O)N[C@H](C(=O)N[C@@H](CC(C)C)C(=O)N[C@@H](CO)C(=O)N[C@@H](CCCCN)C(=O)N[C@H](C(=O)N[C@@H](CCCCN)C(=O)N[C@@H](CCCCN)C(=O)N[C@@H](CC(C)C)C(=O)N[C@@H](CC(C)C)C(=O)N[C@@H](CCCCN)C(N)=O)[C@@H](C)CC)[C@@H](C)CC [LK6, reference compound] (H-IKKILSKIKKLLK-NH2)	>50 µg/mL	12.5 µg/mL (≈ 8.05 µM)	6.25 µg/mL (≈ 4.03 µM)	6.25 µg/mL (≈ 4.03 µM)	50 µg/mL (≈ 32.2 µM)	31.25 µg/mL (≈ 20.1 µM)	12.5 µg/mL (≈ 8.05 µM)	>50 µg/mL								
